Structures are written as SMILES.

One assay relates to human platelets. The experiment in a line: Measuring [Na^+]i with SBFI/AM fluorescence in platelets. In kind it is cell-based. The conditions noted are these: for [Na^+]i elevated from basal levels up to: highest concentration investigated: 50 µM hyperforin, 10 µM monensin, platelets, SBFI fluorescence. Here is the method:
Solutions: The Na^+-HEPES buffer consisted 10 mM HEPES, 1 mM MgSO4, 5 mM KH2PO4, 5 mM KCI and 5 mM Glucose (4). The pH of this buffer was adjusted to 6.5 with NH3 (for storage of platelets) and to 7.4 for the measurement of fluorescence. The K^+ solution was identical except for complete replacement of sodium by potassium.
Preparation of platelets and loading with SBFI/AM: Venous blood (10 ml) was anticoagulated by mixing it with 1.0 ml citrate solution in a S-Monovette. […] Platelet pellets were obtained from PRP by centifugation at 480 x g for 30 min at room temperature. The pellet was resuspended into Sodium-HEPES buffer, pH 6.5 at a final concentration of 3-4 x 10^8 cells/ml. […] Appropriate amounts of this solution were added to the platelets to yield a final concentration of SBFI/AM of 10 µM and platelets were incubated with the dye for 60 min at 37°C in a shaking water bath. Thereafter, platelets were again centrifuged at 480 x g for 30 min at RT. The supernatant was discarded and the platelets were taken up into sodium-HEPES buffer, pH 6.5 at a concentration of 3-4 x 10^9 cells/ml. The platelet suspension was then stored at RT until used for the fluorescence measurements.
Measurement of SBFI/AM Fluorescence: Aliquots of platelet suspension (4 µl) were added to 950 µl of the appropriate buffer. Fluorescence was measured in quartz cuvettes using a SLM-Aminco luminescence spectrometer before and after addition of the tested drugs. […] All measurements were performed without stirring at room temperature.

The target in assay [1] is T1, serotonin transporter (Mus musculus, UniProt Q60857).
T1 construct: from tissue; host or cells: frontal cortex of female NMRI mice (synaptosomes or membranes)
T1 sequence (Q60857 whole entry): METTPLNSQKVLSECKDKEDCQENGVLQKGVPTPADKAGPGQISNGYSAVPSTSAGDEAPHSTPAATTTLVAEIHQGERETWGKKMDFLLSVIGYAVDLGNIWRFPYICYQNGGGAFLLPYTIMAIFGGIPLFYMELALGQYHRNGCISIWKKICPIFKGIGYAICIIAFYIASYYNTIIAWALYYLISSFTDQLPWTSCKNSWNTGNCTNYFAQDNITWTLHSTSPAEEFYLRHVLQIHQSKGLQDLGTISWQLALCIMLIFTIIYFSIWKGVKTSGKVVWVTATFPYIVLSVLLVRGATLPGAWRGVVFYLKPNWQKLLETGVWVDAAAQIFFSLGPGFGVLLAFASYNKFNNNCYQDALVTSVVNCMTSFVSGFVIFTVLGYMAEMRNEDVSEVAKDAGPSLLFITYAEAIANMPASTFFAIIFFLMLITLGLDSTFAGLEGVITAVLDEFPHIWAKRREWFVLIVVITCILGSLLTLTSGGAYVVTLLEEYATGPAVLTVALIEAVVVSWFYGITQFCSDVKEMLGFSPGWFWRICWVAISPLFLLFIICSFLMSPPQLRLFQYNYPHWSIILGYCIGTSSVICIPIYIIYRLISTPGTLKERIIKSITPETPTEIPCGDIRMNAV
Kind of assay: ^3H-paroxetine binding assay (mouse frontal cortex membranes). Here is the method:
Female NMRI mice were sacrified by decapitation. […] The homogenate was centrifuged for 10 min at 35000 x g at 4°C. The resulting pellet was resuspended in 40 volumes of buffer and recentrifuged. The pellet was resuspended in TRIS buffer at a protein concentration of 70 µg/ml. Aliquots of membrane suspension were incubated with ^3H-paroxetine (0.2 nM) at room temperature for 60 minutes. Incubation was terminated by rapid filtration through Whatman GF/B glass fiber filters with a Brandel Cell Harvester. […] The filters were washed 7 times with ice cold buffer, dried and the radioactivity was measured by liquid scintillation spectrometry.

Assay [2] addresses T1, serotonin transporter. Kind of assay: Synaptosomal uptake of ^3H-serotonin (mouse cortex synaptosomes). The assay is classed as cell-based.
Experimental: Synaptosomal preparations from frontal cortex of female NMRI mice were used for serotonin uptake. The tissue was homogenized in ice cold sucrose solution (0.32 M) and diluted with 10 ml of the homogenizing medium. The nuclear fraction was eliminated by centrifugation at 750 x g for 10 min (Beckman Centrifuge, Model J2-21). […] The probes were cooled, immediately filtered through Whatman GF/B glass fiber filters and washed three times with ice cold buffer solution with a Brandel cell harvester. Filters were placed in plastic scintillation vials containing 4 ml Lumasafe scintillation cocktail (Packard). Radioactivity was measured after 12 hours. Nonspecific uptake was determined in parallel probes maintained throughout on ice or containing unlabelled serotonin (1mM serotonin).
Assay [3] concerns the target T1, serotonin transporter. Kind of assay: Kinetic analyses of ^3H-serotonin uptake into mouse cortex synaptosomes. The assay is classed as cell-based. The conditions noted are these: hyperforin 2 µM, citalopram 1 nM, monensin concentration not given in the text.
Assay [4] deals with T2, human serotonin transporter (Homo sapiens, UniProt P31645).
T2 construct: Blood from normal unmedicated volunteers was anticoagulated; endogenous in cells; host or cells: human platelets from blood of unmedicated volunteers
T2 sequence (P31645 whole entry): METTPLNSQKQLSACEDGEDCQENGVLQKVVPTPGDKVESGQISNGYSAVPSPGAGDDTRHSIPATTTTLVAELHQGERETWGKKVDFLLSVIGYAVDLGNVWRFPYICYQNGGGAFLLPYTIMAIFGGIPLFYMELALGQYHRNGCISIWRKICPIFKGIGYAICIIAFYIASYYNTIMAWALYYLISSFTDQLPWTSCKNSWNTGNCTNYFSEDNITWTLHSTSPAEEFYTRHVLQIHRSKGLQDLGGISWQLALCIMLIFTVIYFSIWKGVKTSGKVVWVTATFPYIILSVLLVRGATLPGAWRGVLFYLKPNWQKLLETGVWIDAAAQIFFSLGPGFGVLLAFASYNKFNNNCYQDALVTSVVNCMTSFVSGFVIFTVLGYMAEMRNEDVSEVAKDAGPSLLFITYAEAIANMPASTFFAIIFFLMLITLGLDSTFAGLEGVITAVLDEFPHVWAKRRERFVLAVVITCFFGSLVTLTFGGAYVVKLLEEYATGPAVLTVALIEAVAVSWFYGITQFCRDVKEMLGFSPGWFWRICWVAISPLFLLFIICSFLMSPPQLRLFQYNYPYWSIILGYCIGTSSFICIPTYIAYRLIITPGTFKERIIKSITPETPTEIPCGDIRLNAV
The experiment in a line: ^3H-serotonin uptake in platelets. The assay is classed as cell-based.

For a further assay, the system named is norepinephrine. Kind of assay: Synaptosomal uptake of norepinephrine. In kind it is cell-based. The conditions noted are these: unpublished observations.
The subject of the next assay is dopamine. Kind of assay: Synaptosomal uptake of dopamine. The assay is classed as cell-based. The conditions noted are these: unpublished observations.
In another assay the test system is GABA. Kind of assay: Synaptosomal uptake of GABA. In kind it is cell-based. The note with it: unpublished observations.
The subject of the next assay is L-glutamate. The experiment in a line: Synaptosomal uptake of L-glutamate. The assay is classed as cell-based. The note with it: unpublished observations.

As to `CC(C)=CCCC1(C)C(CC=C(C)C)CC2(CC=C(C)C)C(=O)C(CC=C(C)C)=C(O)C1(C(=O)C(C)C)C2=O` (centres unmarked) [Hyperforin], the “Maximal elevation of [Na^+]i” value in the assay with human platelets (50 µM hyperforin, human platelets) is recorded as “about 70 mM”. Further, the “[Na^+]i elevated from basal levels up to” value in the assay with human platelets is on record as 69,0 ± 16,1 mM. Also, the “incubation time to maximal effect on [Na^+]i” value in the assay on human platelets (hyperforin, human platelets) is reported as no more than 15 min.
On to `CC[C@@]1([C@@H]2O[C@@H]([C@H]3O[C@@](O)(CO)[C@H](C)C[C@@H]3C)C[C@@H]2C)CC[C@H]([C@]2(C)CC[C@]3(C[C@H](O)[C@@H](C)[C@@H]([C@@H](C)[C@@H](OC)[C@H](C)C(=O)O)O3)O2)O1` [Monensin], for which the IC50 at serotonin transporter [1] was greater than 1000 nM; at serotonin transporter [2] it was 47.8 nM; in assay [4] (inhibition of ^3H-serotonin uptake into human platelets, Table 3) it was 159 nM. The Vmax on serotonin transporter [3] was 0,065 ± 0,009 pM/min/mg protein. For the same compound, the inhibition at 0.5 µM in [4] (monensin 500 nM, human platelets) is roughly 70%. Moreover, the “[Na^+]i elevated from basal levels up to” value in the assay with human platelets was 140,0 ± 9,1 mM. The “incubation time to equilibration of [Na^+]i elevation” value in the assay on human platelets (monensin, human platelets) was found to be 15 min. Also, the “IC50 synaptosomal uptake of norepinephrine” value in the assay on norepinephrine is given as “nanomolar range”. Moreover, the “IC50 synaptosomal uptake of dopamine” value in the assay with dopamine was “nanomolar range”. The “IC50 synaptosomal uptake of GABA” value with GABA is reported as “nanomolar range”. Also, in the assay on L-glutamate, the “IC50 synaptosomal uptake of L-glutamate” value is listed as “nanomolar range”.

For the origin of these results see EP1034782A1, “Treatment of depression by using compounds which elevate the intracellular sodium concentration” (Singer, Andrea, priority 1999, dated 2000).
